PubChem BioAssay AID256 (DTP/NCI, 2004)
Several values for one entry are separate records, joined by “and”; a condition that tells them apart may be missing. Equal entries are not always repeated. Inconclusive results and toxic doses are left out. How the source made its calls: active means survival T/C of 150% or more; inactive means T/C below 125% in these data.

System: CD2F1 mice, L1210 leukemia ip, survival T/C
Assay: NCI In Vivo Anticancer Drug Screen. Data for tumor model L1210 Leukemia (intraperitoneal) in CD2F1 (CDF1) mice
Details: higher = longer survival
Outline: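 In this screen, transplantable tumors were grown in mice given either the compound or its vehicle. Results were expressed as the treated measurement relative to the control measurement.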

[1] = endpoint: mean survival time, dose: 100.0 mg/kg/injection, schedule: Q04DX002 (ip), vehicle: saline with Tween-80
[2] = endpoint: mean survival time, dose: 200.0 mg/kg/injection, schedule: Q04DX002 (ip), vehicle: saline with Tween-80
[3] = endpoint: mean survival time, dose: 400.0 mg/kg/injection, schedule: Q04DX002 (ip), vehicle: saline with Tween-80
[4] = endpoint: mean survival time, dose: 100.0 mg/kg/injection, schedule: Q01DX009 (ip), vehicle: saline with Tween-80
[5] = endpoint: mean survival time, dose: 100.0 mg/kg/injection, schedule: Q04DX003 (ip), vehicle: saline with Tween-80
[6] = endpoint: mean survival time, dose: 200.0 mg/kg/injection, schedule: Q01DX009 (ip), vehicle: saline with Tween-80
[7] = endpoint: mean survival time, dose: 200.0 mg/kg/injection, schedule: Q04DX003 (ip), vehicle: saline with Tween-80
[8] = endpoint: mean survival time, dose: 400.0 mg/kg/injection, schedule: Q01DX009 (ip), vehicle: saline with Tween-80
[9] = endpoint: mean survival time, dose: 400.0 mg/kg/injection, schedule: Q04DX003 (ip), vehicle: saline with Tween-80

Measured: T/C

N#CCc1nn(C2OC(CO)C(O)C2O)nc1C(N)=O (centres undefined)
inactive: endpoint: median survival time, dose: 8.5 mg/kg/injection, schedule: Q01DX005 (ip), vehicle: water 103 % of control | endpoint: median survival time, dose: 17.0 mg/kg/injection, schedule: Q01DX005 (ip), vehicle: water 103 % of control | endpoint: median survival time, dose: 34.0 mg/kg/injection, schedule: Q01DX005 (ip), vehicle: water 100 % of control | endpoint: median survival time, dose: 38.0 mg/kg/injection, schedule: Q01DX005 (ip), vehicle: water 97 % of control | endpoint: median survival time, dose: 136.0 mg/kg/injection, schedule: Q01DX005 (ip), vehicle: water 100 % of control

CC1OC(O[C@H]2/C=C/C=C/C=C/C=C/C=C/C=C/C=C/[C@H](C)[C@@H](O)[C@@H](C)[C@H](C)OC(=O)C[C@H](O)C[C@H](O)CC[C@@H](O)[C@H](O)C[C@H](O)C[C@]3(O)C[C@H](O)[C@@H](C(=O)O)[C@H](C2)O3)C(O)C(N)C1O (some centres undefined)
inactive: endpoint: median survival time, dose: 2.0 mg/kg/injection, schedule: Q01DX009 (ip), vehicle: suspension in saline 97 % of control | endpoint: median survival time, dose: 4.0 mg/kg/injection, schedule: Q01DX009 (ip), vehicle: suspension in saline 102 % of control | endpoint: median survival time, dose: 8.0 mg/kg/injection, schedule: Q01DX009 (ip), vehicle: suspension in saline 102 % of control | endpoint: median survival time, dose: 16.0 mg/kg/injection, schedule: Q01DX009 (ip), vehicle: suspension in saline 97 % of control and 98 % of control | endpoint: median survival time, dose: 18.75 mg/kg/injection, schedule: Q01DX009 (ip), vehicle: suspension in saline 108 % of control | endpoint: median survival time, dose: 32.0 mg/kg/injection, schedule: Q01DX009 (ip), vehicle: suspension in saline 102 % of control and 105 % of control | endpoint: median survival time, dose: 37.5 mg/kg/injection, schedule: Q01DX009 (ip), vehicle: suspension in saline 104 % of control | endpoint: median survival time, dose: 64.0 mg/kg/injection, schedule: Q01DX009 (ip), vehicle: suspension in saline 101 % of control | endpoint: median survival time, dose: 75.0 mg/kg/injection, schedule: Q01DX009 (ip), vehicle: suspension in saline 104 % of control | endpoint: median survival time, dose: 128.0 mg/kg/injection, schedule: Q01DX009 (ip), vehicle: suspension in saline 105 % of control | endpoint: median survival time, dose: 150.0 mg/kg/injection, schedule: Q01DX009 (ip), vehicle: suspension in saline 112 % of control | endpoint: median survival time, dose: 300.0 mg/kg/injection, schedule: Q01DX009 (ip), vehicle: suspension in saline 106 % of control

Cc1ccc(Nc2nc(N)nc(N)c2N=O)cc1C
inactive: endpoint: mean survival time, dose: 50.0 mg/kg/injection, schedule: Q01DX001 (ip), vehicle: Klucel (hydroxypropylcellulose) (HPC) 90 % of control | endpoint: mean survival time, dose: 100.0 mg/kg/injection, schedule: Q01DX001 (ip), vehicle: Klucel (hydroxypropylcellulose) (HPC) 87 % of control | endpoint: mean survival time, dose: 200.0 mg/kg/injection, schedule: Q01DX001 (ip), vehicle: Klucel (hydroxypropylcellulose) (HPC) 98 % of control

COc1ccc([N+](=O)[O-])cc1NC(=O)Nc1cccc(Cl)c1
inactive: [1] 91 % of control | [2] 97 % of control | [3] 91 % of control

COc1cc2oc3c(C)c(=O)cc4oc(-c5ccccc5)cc(c2c2c1CCC(c1ccccc1)O2)c43 (centres undefined)
inactive: endpoint: median survival time, dose: 0.85 mg/kg/injection, schedule: Q01DX005 (ip), vehicle: Klucel (hydroxypropylcellulose) (HPC) 98 % of control | endpoint: median survival time, dose: 1.75 mg/kg/injection, schedule: Q01DX005 (ip), vehicle: Klucel (hydroxypropylcellulose) (HPC) 98 % of control | endpoint: median survival time, dose: 3.5 mg/kg/injection, schedule: Q01DX005 (ip), vehicle: Klucel (hydroxypropylcellulose) (HPC) 98 % of control and 102 % of control | endpoint: median survival time, dose: 7.0 mg/kg/injection, schedule: Q01DX005 (ip), vehicle: Klucel (hydroxypropylcellulose) (HPC) 100 % of control and 102 % of control | endpoint: median survival time, dose: 12.5 mg/kg/injection, schedule: Q01DX005 (ip), vehicle: saline with Tween-80 96 % of control | endpoint: median survival time, dose: 14.0 mg/kg/injection, schedule: Q01DX005 (ip), vehicle: Klucel (hydroxypropylcellulose) (HPC) 94 % of control and 96 % of control | endpoint: median survival time, dose: 25.0 mg/kg/injection, schedule: Q01DX005 (ip), vehicle: saline with Tween-80 95 % of control | endpoint: median survival time, dose: 28.0 mg/kg/injection, schedule: Q01DX005 (ip), vehicle: Klucel (hydroxypropylcellulose) (HPC) 98 % of control | endpoint: median survival time, dose: 50.0 mg/kg/injection, schedule: Q01DX005 (ip), vehicle: saline with Tween-80 96 % of control | endpoint: median survival time, dose: 56.0 mg/kg/injection, schedule: Q01DX005 (ip), vehicle: Klucel (hydroxypropylcellulose) (HPC) 101 % of control | endpoint: median survival time, dose: 100.0 mg/kg/injection, schedule: Q01DX005 (ip), vehicle: saline with Tween-80 91 % of control | endpoint: median survival time, dose: 200.0 mg/kg/injection, schedule: Q01DX005 (ip), vehicle: saline with Tween-80 95 % of control

O=C=N/C=C/NC(=O)Nc1cccc(Cl)c1
inactive: [1] 104 % of control | [2] 93 % of control | [3] 101 % of control

Cc1cc(C(O)CNCCn2cnc3c2c(=O)n(C)c(=O)n3C)ccc1O (centres undefined)
inactive: endpoint: mean survival time, dose: 12.5 mg/kg/injection, schedule: Q01DX005 (ip), vehicle: water 103 % of control | endpoint: mean survival time, dose: 25.0 mg/kg/injection, schedule: Q01DX005 (ip), vehicle: water 100 % of control | endpoint: mean survival time, dose: 50.0 mg/kg/injection, schedule: Q01DX005 (ip), vehicle: water 97 % of control | endpoint: mean survival time, dose: 100.0 mg/kg/injection, schedule: Q01DX005 (ip), vehicle: water 100 % of control | endpoint: mean survival time, dose: 200.0 mg/kg/injection, schedule: Q01DX005 (ip), vehicle: water 100 % of control

O=C(CC(NC(=O)OCc1ccccc1)C(=O)OCc1ccccc1)OCc1ccccc1 (centres undefined)
inactive: [4] 106 % of control | [5] 92 % of control | [6] 98 % of control | [7] 91 % of control | [8] 97 % of control | [9] 92 % of control

CCCC(C)(C)O
inactive: [5] 104 % of control | [7] 107 % of control | [9] 101 % of control

O=C(O)CCCCCCCC(=O)O
inactive: endpoint: median survival time, dose: 6.25 mg/kg/injection, schedule: Q01DX009 (ip), vehicle: distilled water + Tween-80 101 % of control | endpoint: median survival time, dose: 12.5 mg/kg/injection, schedule: Q01DX009 (ip), vehicle: distilled water + Tween-80 95 % of control | endpoint: median survival time, dose: 25.0 mg/kg/injection, schedule: Q01DX009 (ip), vehicle: distilled water + Tween-80 101 % of control | endpoint: median survival time, dose: 50.0 mg/kg/injection, schedule: Q01DX009 (ip), vehicle: distilled water + Tween-80 89 % of control | endpoint: median survival time, dose: 100.0 mg/kg/injection, schedule: Q01DX009 (ip), vehicle: distilled water + Tween-80 97 % of control

O=C(O)c1cc2c([nH]1)=C(O)NN(O)C=2
inactive: endpoint: mean survival time, dose: 12.5 mg/kg/injection, schedule: Q04DX002 (ip), vehicle: saline with Tween-80 101 % of control | endpoint: mean survival time, dose: 25.0 mg/kg/injection, schedule: Q04DX002 (ip), vehicle: saline with Tween-80 101 % of control | endpoint: mean survival time, dose: 50.0 mg/kg/injection, schedule: Q04DX002 (ip), vehicle: saline with Tween-80 111 % of control

CCC(C)OC(=O)Nc1cccc(OC(=O)N(C)C)c1 (centres undefined)
inactive: [5] 97 % of control | [7] 97 % of control | [9] 100 % of control

CC(=O)Nc1cccc([N+](=O)[O-])c1
inactive: endpoint: mean survival time, dose: 100.0 mg/kg/injection, schedule: Q04DX003 (ip), vehicle: Klucel (hydroxypropylcellulose) (HPC) 94 % of control | endpoint: mean survival time, dose: 200.0 mg/kg/injection, schedule: Q04DX003 (ip), vehicle: Klucel (hydroxypropylcellulose) (HPC) 97 % of control

Nc1cc(N)c([N+](=O)[O-])cc1[N+](=O)[O-]
inactive: [5] 100 % of control | [7] 91 % of control | [9] 108 % of control

Cc1cccc[n+]1CC[n+]1ccccc1C
inactive: endpoint: mean survival time, dose: 100.0 mg/kg/injection, schedule: Q01DX001 (ip), vehicle: saline 100 % of control | endpoint: mean survival time, dose: 200.0 mg/kg/injection, schedule: Q01DX001 (ip), vehicle: saline 101 % of control

CCCCO.[Ti]
inactive: [4] 103 % of control | [6] 97 % of control | [8] 104 % of control

CNc1ccccc1CO
inactive: endpoint: mean survival time, dose: 100.0 mg/kg/injection, schedule: Q01DX009 (ip), vehicle: other 107 % of control | endpoint: mean survival time, dose: 200.0 mg/kg/injection, schedule: Q01DX009 (ip), vehicle: other 97 % of control | endpoint: mean survival time, dose: 400.0 mg/kg/injection, schedule: Q01DX009 (ip), vehicle: other 103 % of control

CC1(C)N=C(N)N=C(N)N1c1cccc(/C=C/c2ccc([N+](=O)[O-])cc2)c1
inactive: endpoint: mean survival time, dose: 100.0 mg/kg/injection, schedule: Q04DX002 (ip), vehicle: Klucel (hydroxypropylcellulose) (HPC) 103 % of control | endpoint: mean survival time, dose: 200.0 mg/kg/injection, schedule: Q04DX002 (ip), vehicle: Klucel (hydroxypropylcellulose) (HPC) 107 % of control | endpoint: mean survival time, dose: 400.0 mg/kg/injection, schedule: Q04DX002 (ip), vehicle: Klucel (hydroxypropylcellulose) (HPC) 95 % of control
